# According to US10633419B2, “Immunomodulators” (BRISTOL-MYERS SQUIBB COMPANY, priority 2014, dated 2020):
# Starred links: 1 amine or outer side, 2 acyl side, 3 side chain; linkers in the order of their positions; H or OH if unused. Positions of bridges follow the written chain, without caps; N, C: chain ends. Non-standard residues stand in square brackets, D forms with d. Residues, ends and D or L forms follow the SMILES beside them. Groups on a side chain read outwards from the residue. *: point of attachment. X6 = O=C(O)CCCCCCCCCCCCCCCCC(=O)N[C@@H](CCC(=O)NCCCOCCOCCOCCCN*)C(=O)O; Trp(1-CH2COOH) = N[C@@H](Cc1cn(CC(=O)O)c2ccccc12)C(=O)O; X8 = O=C(O)CCCCCCCCCCCCNC(=O)CCC(=O)NCCCOCCOCCOCCCN*; Phe(3,4,5-F3) = N[C@@H](Cc1cc(F)c(F)c(F)c1)C(=O)O; X26 = O=C(O)Cn1cc(CC(N[*:1])C(=O)[*:2])c2ccccc21; NH(CH2)16COOH = O=C(O)CCCCCCCCCCCCCCCCN*; C16 diacid = O=C(O)CCCCCCCCCCCCCCC(=O)*; d(cisHyp) = O=C(O)[C@H]1C[C@@H](O)CN1; Hyp = O=C(O)[CH]1C[CH](O)CN1; NMeF = CN[C@@H](Cc1ccccc1)C(=O)O; X30 = O=C1NC2CSC(CCCCC(=O)*)C2N1; NMeNle = CCCC[CH](NC)C(=O)O; PEG4 = NCCOCCOCCOCCOCCC(=O)O; dPip = O=C(O)[C@H]1CCCCN1; NMeA = CN[CH](C)C(=O)O; Pra = C#CC[C@H](N)C(=O)O; Dab = NCC[CH](N)C(=O)O; Dap = NC[CH](N)C(=O)O
# Biological target: T1, PD-L1 (Homo sapiens, UniProt Q9NZQ7)
# T1 construct: hPDL1(19-239)-TVMV-His; made in house; host or cells: HEK293T
# Test: PD-1/PD-L1 Homogenous Time-Resolved Fluorescence (HTRF) binding assay (PD-1-Ig/PD-L1-His)
# Conditions: inhibition of PD-1-Ig binding to PD-L1-TVMV-His; value given as number; read-out: HTRF IC50
# In short: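 Inhibitors pre-incubated 15 min with PD-L1-His (10 nM final), then PD-1-Ig (20 nM final) added for 15 min in dPBS/0.1% BSA/0.05% Tween-20. Eu-cryptate anti-Ig (1 nM) and APC anti-His (20 nM) added, 30 min equilibration, 665/620 nm HTRF ratio read.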
# T1 sequence (Q9NZQ7 with tags, fused parts or gaps): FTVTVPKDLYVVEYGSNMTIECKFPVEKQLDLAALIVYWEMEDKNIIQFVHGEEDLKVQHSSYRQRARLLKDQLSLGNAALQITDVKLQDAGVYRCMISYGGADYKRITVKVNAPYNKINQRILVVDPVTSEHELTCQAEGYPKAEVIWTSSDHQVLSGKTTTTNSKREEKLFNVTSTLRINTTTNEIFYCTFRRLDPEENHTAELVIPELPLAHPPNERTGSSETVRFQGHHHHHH
row,IC50 [µM],SMILES
1,0.28,CCCCC1C(=O)N(C)C(CCCC)C(=O)NC(CC(C)C)C(=O)NC(C(=O)NCC(=O)NCCCCCCCCCCCCCCCCC(=O)O)CSCC(=O)NC(Cc2ccc(O)cc2)C(=O)N(C)C(C)C(=O)NC(CC(N)=O)C(=O)N2CCCC2C(=O)NC(CN)C(=O)NC(CC(C)C)C(=O)N2CC(O)CC2C(=O)NC(Cc2c[nH]c3ccccc23)C(=O)NC(CCN)C(=O)NC(Cc2cn(CC(=O)O)c3ccccc23)C(=O)N1C (stereo not drawn) [Example 11188] ({CH2CO}-Y[NMeA]NP[Dap]L[Hyp]W[Dab][X26][NMeNle][NMeNle]LCG-{NH(CH2)16COOH}; thioether N-14; configuration not given here)

# Same assay, conditions: inhibition of PD-1-Ig binding to PD-L1-TVMV-His; value given as range class; read-out: HTRF IC50
row,SMILES,IC50 [µM]
1,CCCC[C@H]1C(=O)N(C)[C@@H](CCCC)C(=O)N[C@@H](CC(C)C)C(=O)N[C@H](C(=O)NCCCOCCOCCOCCCNC(=O)CCC(=O)NCCCCCCCCCCCCC(=O)O)CSCC(=O)N[C@@H](Cc2ccc(O)cc2)C(=O)N(C)[C@@H](C)C(=O)N[C@@H](CC(N)=O)C(=O)N2CCC[C@H]2C(=O)N[C@@H](CN)C(=O)N[C@@H](CC(C)C)C(=O)N2C[C@H](O)C[C@H]2C(=O)N[C@@H](Cc2c[nH]c3ccccc23)C(=O)N[C@@H](CCN)C(=O)N[C@@H](Cc2cn(CC(=O)O)c3ccccc23)C(=O)N1C [Example 11214] ({CH2CO}-Y[NMeA]NP[Dap]L[Hyp]W[Dab][Trp(1-CH2COOH)][NMeNle][NMeNle]LC-X8; thioether N-14),0.01 to 0.099
2,C#CC[C@H](NC(=O)CNC(=O)[C@@H]1CSCC(=O)N[C@@H](Cc2ccc(O)cc2)C(=O)N(C)[C@@H](C)C(=O)N[C@@H](CC(N)=O)C(=O)N2CCC[C@H]2C(=O)N[C@@H](CN)C(=O)N[C@@H](CC(C)C)C(=O)N2C[C@H](O)C[C@H]2C(=O)N[C@@H](Cc2c[nH]c3ccccc23)C(=O)N[C@@H](CCN)C(=O)N[C@@H](Cc2cn(CC(=O)O)c3ccccc23)C(=O)N(C)[C@@H](CCCC)C(=O)N(C)[C@@H](CCCC)C(=O)N[C@@H](CC(C)C)C(=O)N1)C(N)=O [INT 1300W] ({CH2CO}-Y[NMeA]NP[Dap]L[Hyp]W[Dab][Trp(1-CH2COOH)][NMeNle][NMeNle]LCG[Pra]-NH2; thioether N-14),0.01 to 0.099
3,"CCCC[C@H]1C(=O)N2C[C@H](O)C[C@@H]2C(=O)N[C@@H](CC(=O)O)C(=O)N[C@@H](C(C)C)C(=O)N(C)[C@@H](Cc2ccccc2)C(=O)N[C@@H](Cc2ccc(O)cc2)C(=O)N2CCCC[C@@H]2C(=O)N[C@@H](Cc2c[nH]c3ccccc23)C(=O)N[C@@H](Cc2ccc(O)cc2)C(=O)N[C@@H](CC(C)C)C(=O)N[C@H](C(=O)NCC(=O)NCC(=O)NCC(=O)N[C@@H](CCCCNC(=O)CCOCCOCCOCCOCCNC(=O)CCCCC2SCC3NC(=O)NC32)C(N)=O)CSCC(=O)N[C@@H](Cc2cc(F)c(F)c(F)c2)C(=O)N(C)[C@@H](Cc2ccccc2)C(=O)N1C (stereo partly drawn) [Example 3626] ({CH2CO}-[Phe(3,4,5-F3)][NMeF][NMeNle][d(cisHyp)]DV[NMeF]Y[dPip]WYLCGGGK([PEG4-X30])-NH2; thioether N-13)",0.0003 to 0.0099

# Other lines, results leading:
row,IC50 [µM],SMILES
1,0.1 to 1.6,CCCC[C@H]1C(=O)N(C)[C@@H](CCCC)C(=O)N[C@@H](CC(C)C)C(=O)N[C@H](C(=O)NCC(=O)N[C@@H](CC(=O)NCCCOCCOCCOCCCNC(=O)CC[C@H](NC(=O)CCCCCCCCCCCCCCCCC(=O)O)C(=O)O)C(=O)O)CSCC(=O)N[C@@H](Cc2ccc(O)cc2)C(=O)N(C)[C@@H](C)C(=O)N[C@@H](CC(N)=O)C(=O)N2CCC[C@H]2C(=O)N[C@@H](CN)C(=O)N[C@@H](CC(C)C)C(=O)N2C[C@H](O)C[C@@H]2C(=O)N[C@@H](Cc2c[nH]c3ccccc23)C(=O)N[C@@H](CCN)C(=O)N[C@@H](Cc2cn(CC(=O)O)c3ccccc23)C(=O)N1C [Example 11160] ({CH2CO}-Y[NMeA]NP[Dap]L[d(cisHyp)]W[Dab][Trp(1-CH2COOH)][NMeNle][NMeNle]LCGD(X6)-OH; thioether N-14)
2,0.01 to 0.099,CCCC[C@H]1C(=O)N(C)[C@@H](CCCC)C(=O)N[C@@H](CCCNC(=N)N)C(=O)N[C@H](C(=O)NCC(=O)NCC(=O)N[C@@H](CC(=O)O)C(=O)N[C@@H](CCCCNC(=O)CCCCCCCCCCCCCCC(=O)O)C(N)=O)CSCC(=O)N[C@@H](Cc2ccc(O)cc2)C(=O)N(C)[C@@H](C)C(=O)N[C@@H](CC(=O)O)C(=O)N2CCC[C@H]2C(=O)N[C@@H](Cc2cnc[nH]2)C(=O)N[C@@H](CC(C)C)C(=O)N2C[C@H](O)C[C@H]2C(=O)N[C@@H](Cc2c[nH]c3ccccc23)C(=O)N[C@@H](CO)C(=O)N[C@@H](Cc2c[nH]c3ccccc23)C(=O)N1C [Example 11126] ({CH2CO}-Y[NMeA]DPHL[Hyp]WSW[NMeNle][NMeNle]RCGGDK(C16 diacid)-NH2; thioether N-14)
